According to patent US4880014A, “Method for determining therapeutic drug dosage using bioelectrical resistance and reactance measurements” (priority 1988, dated 1989):
Values joined by “and” are separate entries in the source; they are usually repeats but may differ in a detail not shown here. Equal values may be shown once.

Key:
[1] = human, in vivo, iv
Experimental: Twelve human subjects participated in the following study. The resistance (R) and the reactance (Xc) of each patient was measured using a four-terminal impedance plethysmograph. During the measurement, the subjects were placed in the supine position on an insulative surface. The electrodes were attached in the following manner. Those areas of the patient's skin where the electrodes were to be connected were cleaned thoroughly with alcohol. […]
The elimination rate constant was determined by nonlinear regression analysis of the serum concentration data for each patient using Micrononlin (Micrononlin, Elite Software, box 11223. Pittsburgh. PA 15238).
Volume of distribution was calculated by the Sawchuk-Zaske method.
(§1) Calculation of (K) and (V) from the measured serum concentration data was performed as were the dosage regimens using the measured serum concentration data by the equations of Sawchuk and Zaske which will be known to those skilled in the art.

[2] = Gentamicin K and V predicted by bioelectrical impedance (multiple regression), and dosage regimen calculated from predicted K, V; set-up: species or system human; conditions: two-sided T-test
Experimental: Twelve human subjects participated in the following study. The resistance (R) and the reactance (Xc) of each patient was measured using a four-terminal impedance plethysmograph. During the measurement, the subjects were placed in the supine position on an insulative surface. The electrodes were attached in the following manner. Those areas of the patient's skin where the electrodes were to be connected were cleaned thoroughly with alcohol. The four pre-gelled electrodes were then attached to the patient such that one current electrode was attached to the dorsal surface of the patient's right hand at the distal metacarpals, one current electrode was attached to the patient's right foot at the location of the distal metatarsals, one detector electrode was connected to the patients right wrist at the right pisiform prominence, and one detector electrode was connected to the patient's right ankle between the medial and lateral malleoli. An excitation current of 800 microamps and frequency of 50 kHz was then applied and R and Xc values obtained. […]
as §1

[3] = Simulation of gentamicin peak and trough serum concentrations for an average 70 kg patient; set-up: species or system human
Experimental: Serum concentrations were then simulated for an average 70 kg patient given a one-hour infusion of the dose to achieve a postdose serum concentration of 6.0 mcg/ml and a predose serum concentration of 1.0 mcg/ml. This simulation was performed with the values of (K) and (V) determined by measured serum concentrations and the calculated dosage regimen from these measured (K) and (V) values, is recorded, respectively, in columns A and B of Table VI. A simulation was also performed with the dosage regimen determined by the bioelectrical impedance analysis of the present invention, using the patient's actual measured (K) and (V), to test the prediction error of the method of dosing of the present invention. Equations A and B which were discussed earlier were used for calculating dosing interval and dose. The latter is recorded respectively in columns C and D of Table VI.

[4] = Theophylline pharmacokinetics in fifteen normal adult males from serum concentrations (Lagran), and dose calculated from measured Cl; type: in vivo, human
Text: Fifteen normal adult males were used in the following study. Each subject was given a single intravenous dosage of theophylline.
Serial blood samples were obtained, for all fifteen patients, from an intravenous catheter placed in the arm.
F=1.0, assuming 100% oral absorption

[5] = Theophylline Cl, K and V predicted by bioelectrical impedance (multiple regression), and dose calculated from predicted Cl; set-up: species or system human; conditions: two-sided t-test
Text: An excitation current of 800 microamps and frequency of 50 kHz was then applied and (R) and (Xc) values obtained.
The independent variables set forth in Table VII were used in a stepwise multiple linear regression program to produce the models of best definition for (Cl), (K) and (V) by entering each patients individual variables (Cl), (V) and (K) into the program. It then fits a linear least-squares regression model to the entire set of independent variables to identify the best independent variables and their coefficients for the description of the […] dependent variables (Cl), (K) and (V). Insignificant variables were dropped from the model. The equations generated are those set forth previously as Equation 3, Equation 4 and Equation 5.
Other internationally recognized programs could also be used and may include BMDP (Biomedical Data Processing) and SPSS (Statistical Programming for the Social Sciences).
In Table VIII, clearance (Cl), elimination rate constant (K), and volume of distribution (V), determined for theophylline using a multiple regression analysis produced F variable sequence defined in Tables VII and IX are shown in columns B, D, and F, respectively. Table VII is the model sequence used to solve for (Cl), (K) and (V) as derived by stepwise regression analysis. […]

Elimination Rate Constant (K), Meas., mean [1]	Serum concentrations for all twelve patients [1]	Comparison of K, V and dosage regimens, bioelectrical impedance vs measured serum concentration [2]	Comparison of postdose or predose concentrations simulated from measured K, V vs bioelectrical impedance K, V [3]	Compound	clearance ([4]; human, serum, iv, 4 mg/kg, mean of fifteen subjects, column A, read-out: Clearance (Cl), Meas., MEAN (converted))	k el ([4]; human, serum, iv, 4 mg/kg, mean of fifteen subjects, column C, read-out: Elimination Rate Constant (K), Meas., MEAN (converted))	Vd ([4]; human, serum, iv, 4 mg/kg, mean of fifteen subjects, column E, read-out: Volume of Distribution (V), Meas., MEAN)	Elimination Rate Constant (K), Meas. ([4]; individual patients (Pt. 1-15), single intravenous 4 mg/kg, 30 minute infusion, column C)	Comparison of K, V, Cl and dosage regimens, bioelectrical impedance vs measured serum concentrations [5]
.270 hr -1	2000 to 10000 ng/mL	no statistically significant differences	no statistically significant differences	gentamicin	–	–	–	–	–
–	–	–	–	Cn1c(=O)c2[nH]cnc2n(C)c1=O [theophylline]	52.3 mL/min	2.36e-05 s⁻¹	39.4 L	.0885 h and .0631 h and .0591 h and .0521 h and .0813 h and .0895 h and .1241 h and .0305 h and .1895 h and .0815 h and .0938 h and .0921 h and .0713 h and .0774 h	no statistically significant differences
